The target in this assay is FABP4 (Homo sapiens, UniProt P15090). The assay can be described thus: TdF (Temperature Dependence Fluorescence) assay, thermal shift, FABP4. It counts as binding. An excerpt:
TdF (Temperature Dependence Fluorescence) Assay for FABP3 and FABP4
The TdF assay was mainly conducted in the 96-well based CHROMO-4 real time fluorescence plate reader (BioRad). The Sypro Orange (Sigma-Aldrich), environmentally sensitive fluorescence dye, was used to monitor the protein folding-unfolding transition. Protein-ligand binding was gauged by the change (or shift) in the unfolding transition temperature (ΔTm) acquired at protein alone with respect to protein in the presence of ligand of interest.
The compound of interest was first prepared in DMSO stock (typical concentration: 10 mM). […] Final percentage of DMSO resided in the sample was 2%. The sample plate was heated from 30° C. to 90° C. with thermal ramping rate of 1° C./min. The fluorescence signals were acquired with excitation and emission wavelengths centered at 490 and 560 nm respectively. The instrument thermal stability was ±0.2° C.
Theoretical basis for TdF-based ligand binding affinity constant
In brief, the binding constant of the ligand at the Tm is expressed as below:
[formula] where To is the midpoint of unfolding for unliganded protein and Tm is the midpoint of unfolding in presence of ligand. [LTm] is free ligand at Tm. The ΔHu and ΔCpu are the enthalpy of unfolding and heat capacity change of unfolding for the protein respectively.
The nonlinear regression fitting in general readily reaches convergence by properly constraining the initial values for the fitting parameters (e.g. the initial “guess” for the ΔHu was constrained to 120 kcal/mol; initial Yn and mn were set to 1 and zero to best represent the melting curve along the low temperature region; negative slope of −0.5 was initially chosen for mu; initial Tm was also constrained to 50° C.).
[formula] (see Brandts et al and Mayhood et al, shown above) where ΔHL (T) is the van't Hoff enthalpy of ligand binding at temperature T and ΔCpL is the heat capacity upon ligand binding. For simplicity, the ΔCpL and ΔHL (T) were set to zero and −7 kcal/mol respectively. […] TdCD (Temperature-dependent Circular Dichroism) Assay for FABP3/4/5

Some results are limits rather than exact numbers.

Chain of FABP4 (P15090 whole entry, species assumed): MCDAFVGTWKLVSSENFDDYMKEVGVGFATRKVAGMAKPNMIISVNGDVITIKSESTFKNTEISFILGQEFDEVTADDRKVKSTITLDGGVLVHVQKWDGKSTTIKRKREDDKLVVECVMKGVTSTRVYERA

Take `CCOc1ccc(NCc2cc(=O)n3nc(-c4ccccc4)nc3[nH]2)cc1` [6-2]: the Kd is more than 500 nM.
Same read-out and setting: the figure for `COc1cc2c(cc1OC)CN(Cc1cc(=O)n3nc(-c4ccccc4)nc3[nH]1)C2` [6-5] is more than 500 nM.
On the same count and under the same terms, the figure for `CCc1ccc(OCc2cc(=O)n3ncnc3[nH]2)cc1` [7-1] is more than 500 nM.
As for `CCc1ccc(OCc2[nH]c3ncnn3c(=O)c2F)cc1` [7-2], the Kd is more than 500 nM.
On the same count and under the same terms, the figure for `CCc1ccc(OCc2cc(=O)n3nc(C(F)(F)F)nc3[nH]2)cc1` [8-2] is more than 500 nM.
As for `CCc1ccc(OCc2cc(=O)n3nc(C)nc3[nH]2)cc1` [8-3], the Kd is more than 500 nM.
Still for that read-out and setting: with `CCc1ccc(OCc2cc(=O)n3nc(CC)nc3[nH]2)cc1` [8-4] the figure was more than 500 nM; with `CCc1ccc(OCc2cc(=O)n3nc(-c4cccnc4)nc3[nH]2)cc1` [8-5], more than 500 nM; with `CCc1ccc(OCc2cc(=O)n3nc(C4CCC4)nc3[nH]2)cc1` [8-6], more than 500 nM.
On the same count and under the same terms, the figure for `CCc1ccc(OCc2cc(=O)n3nc(C(=O)OC)nc3[nH]2)cc1` [8-7] is more than 500 nM.
With `CCc1ccc(OCc2cc(=O)n3nc(CO)nc3[nH]2)cc1` [8-8], the Kd is more than 500 nM.
The same measure, in the same setting: the figure for `CCc1ccc(OCc2cc(=O)n3nc(COC(C)=O)nc3[nH]2)cc1` [8-9] is more than 500 nM; for `CCc1ccc(OCc2cc(=O)n3nc(-c4ccncc4)nc3[nH]2)cc1` [8-10] it is more than 500 nM; for `CCc1ccc(OCc2cc(=O)n3nc(Cc4ccccc4)nc3[nH]2)cc1` [8-11] it is more than 500 nM.
Take `CCc1ccc(OCc2cc(=O)n3nc(C4CC4)nc3[nH]2)cc1` [8-12]: the Kd was more than 500 nM.
As for `Cc1c(Cl)cccc1OCc1cc(=O)n2nc(-c3cccs3)nc2[nH]1` [8-13], the “FABP4 TdF Kd” value is listed as “B (0.5 ≦ B < 0.001 μM)”.
For the compound `Cc1c(Cl)cccc1OCc1cc(=O)n2nc(-c3ccccn3)cc2[nH]1` [8-14], the Kd is more than 500 nM.
For `CCc1ccc(OCc2cc(=O)n3nc(C(=O)O)nc3[nH]2)cc1` [9-1], the Kd was more than 500 nM.
On the same count and under the same terms, the figure for `CCc1ccc(NCc2cc(=O)n3nc(-c4ccccc4)cc3[nH]2)cc1` [10-1] is more than 500 nM; for `Cc1c(Cl)cccc1NCc1cc(=O)n2nc(-c3ccccc3)cc2[nH]1` [10-2] it is more than 500 nM.
As to `Cc1c(Cl)cccc1NC(=O)c1cc(=O)n2nc(-c3ccccc3)nc2[nH]1` [11-3], the Kd is more than 500 nM.
Still for that read-out and setting: with `Cc1c(Cl)cccc1N(C)C(=O)c1cc(=O)n2nc(-c3ccccc3)nc2[nH]1` [11-4] the figure was more than 500 nM.
Consider `CCc1ccc(SCc2cc(=O)n3nc(-c4ccccc4)nc3[nH]2)cc1` [12-1], for which the “FABP4 TdF Kd” value was “B (0.5 ≦ B < 0.001 μM)”.
Turning to `CCc1ccc(S(=O)(=O)Cc2cc(=O)n3nc(-c4ccccc4)nc3[nH]2)cc1` [12-2], the Kd is more than 500 nM.
On to `Cc1c(Cl)cccc1NCc1[nH]c2ncnn2c(=O)c1Cl` [13-2], for which the Kd is more than 500 nM.
On the same count and under the same terms, the figure for `CCc1ccc(CCc2cc(=O)n3nc(-c4ccccc4)nc3[nH]2)cc1` [14-3] is more than 500 nM; for `CCc1ccc(OCc2[nH]c3nc(-c4ccccc4)nn3c(=O)c2C)cc1` [15-3] it is more than 500 nM.
Take `Cc1c(Cl)cccc1SCc1cc(=O)n2nc(-c3ccccc3)nc2[nH]1` [16-2]: the “FABP4 TdF Kd” value was “B (0.5 ≦ B < 0.001 μM)”.
On to `Cc1c(Cl)cccc1N(Cc1cc(=O)n2nc(-c3ccccc3)nc2[nH]1)C1CC1` [17-2], for which the Kd is more than 500 nM.
Turning to `O=c1cc(CN(c2cccc(Cl)c2)C2CC2)[nH]c2nc(-c3ccccc3)nn12` [17-3], the “FABP4 TdF Kd” value is “B (0.5 ≦ B < 0.001 μM)”.
On the same count and under the same terms, the entry for `CN(Cc1cc(=O)n2nc(-c3ccccc3)nc2[nH]1)c1cccc(Cl)c1C1CC1` [18-3] is “B (0.5 ≦ B < 0.001 μM)”; for `CNc1cccc(N(C)Cc2cc(=O)n3nc(-c4ccccc4)nc3[nH]2)c1C1CC1` [19-2] it is “B (0.5 ≦ B < 0.001 μM)”.
Same read-out and setting: the entry for `CCc1c(Cl)cccc1OCc1cc(=O)n2nc(-c3ccccc3)nc2[nH]1` [21-3] is “B (0.5 ≦ B < 0.001 μM)”; for `COCc1c(Cl)cccc1OCc1cc(=O)n2nc(-c3ccccc3)nc2[nH]1` [22-2] it is “B (0.5 ≦ B < 0.001 μM)”.

The term Kd denotes the equilibrium constant for the complex coming apart.
